From patent US12233161B1, “Lipids and lipid nanoparticle formulations” (LONGUIDE BIOPHARMA CORPORATION, priority 2024, dated 2025) come the findings set out here.

The structures appear in SMILES notation.

A short description of series [1]: Particle size and PDI of nucleic acid lipid nanoparticle preparations by dynamic light scattering. The series is classed as physicochemical. In short, it runs like this:
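Nanoparticle suspension (about 0.04 mg/mL mRNA) diluted in ultrapure water, mixed by gentle pipetting; particle size measured by dynamic light scattering. Zeta potential measured on the recovered sample after further dilution in ultrapure water.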

For another series, the system named is mice. Description: In vivo delivery of FLuc-mRNA lipid nanoparticles in mice, in vivo imaging (IVIS). In short, it runs like this: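 Mice (n=3) received about 75 μL FLuc-mRNA LNP per mouse intramuscularly (rectus femoris), intravenously (tail vein), intraperitoneally or subcutaneously (back). After injection, D-luciferin (200 μL, 15 mg/mL) was given i.p. 10-15 min before IVIS imaging.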

Where [2] appears, read: DMG-PEG2000:DSPC:Chol:Lipid 1.00:8.00:51.00:40.00, N/P 6.7, mRNA LNP.
Setting [3] is: DMG-PEG2000:DSPC:Chol:Lipid 1.50:8.00:30.50:60.00, N/P 8.3, mRNA LNP.
The mark [4] stands for this setting: DMG-PEG2000:DSPC:Chol:Lipid 1.63:12.99:45.38:40.00, N/P 25, mRNA LNP.
[5] abbreviates: DMG-PEG2000:DSPC:Chol:Lipid 1.00:8.00:51.00:40.00, N/P 6.7, IV, liver.
The mark [6] stands for this setting: DMG-PEG2000:DSPC:Chol:Lipid 1.00:8.00:51.00:40.00, N/P 6.7, IV, lung.
Where [7] appears, read: DMG-PEG2000:DSPC:Chol:Lipid 1.00:8.00:51.00:40.00, N/P 6.7, IV, spleen.
[8] abbreviates: DMG-PEG2000:DSPC:Chol:Lipid 1.50:8.00:30.50:60.00, N/P 8.3, IV, liver.
The mark [9] stands for this setting: DMG-PEG2000:DSPC:Chol:Lipid 1.50:8.00:30.50:60.00, N/P 8.3, IV, lung.
Setting [10] is: DMG-PEG2000:DSPC:Chol:Lipid 1.50:8.00:30.50:60.00, N/P 8.3, IV, spleen.
Setting [11] is: DMG-PEG2000:DSPC:Chol:compound 1.40:11.15:38.95:48.50, N/P 20.
Where [12] appears, read: IM, DMG-PEG2000:DSPC:Chol:compound 1.40:11.15:38.95:48.50, N/P 20, Fluc-mRNA.
The mark [13] stands for this setting: IV, organ not given, DMG-PEG2000:DSPC:Chol:compound 1.40:11.15:38.95:48.50, N/P 20, Fluc-mRNA.
The mark [14] stands for this setting: DMG-PEG2000:DSPC:Chol:Lipid 1.09:8.66:30.25:60.00, N/P 13.3, mRNA LNP.
Setting [15] is: DMG-PEG2000:DSPC:Chol:Lipid 1.40:11.15:38.95:48.50, N/P 13.3, mRNA LNP.
[16] abbreviates: DMG-PEG2000:DSPC:Chol:compound 1.40:11.15:38.95:48.50, N/P 30.
[17] abbreviates: IM, DMG-PEG2000:DSPC:Chol:compound 1.40:11.15:38.95:48.50, N/P 30, Fluc-mRNA.
Where [18] appears, read: DMG-PEG2000:DSPC:Chol:compound 1.40:11.15:38.95:48.50, N/P 40.

In the case of `CCCCCCCCCCNC(=O)C(O)CN(CCN(C)CCN(CC(O)C(=O)NCCCCCCCCCC)CC(O)C(=O)NCCCCCCCCCC)CC(O)C(=O)NCCCCCCCCCC` (centres unmarked) [Compound L0266], the PDI is listed as 0.10 ± 0.01 in series [1] (setting [2]), 0.17 ± 0.02 in series [1] (setting [3]) and 0.17 ± 0.01 in series [1] (setting [4]). Further, the figures for the Particle size in series [1] (setting [2]), in series [1] (setting [3]) and in series [1] (setting [4]) were 80.47 ± 1.22 nm, 108.70 ± 0.82 nm and 85.98 ± 1.18 nm, respectively. The IVIS with mice (DMG-PEG2000:DSPC:Chol:Lipid 1.00:8.00:51.00:40.00, N/P 6.7, IV, body) is on record as 3.13 × 10^7; in the series on mice (setting [5]), 3.13 × 10^6; with mice (setting [6]) it was 2.64 × 10^6; with mice (setting [7]), 5.03 × 10^6; in the series with mice (DMG-PEG2000:DSPC:Chol:Lipid 1.50:8.00:30.50:60.00, N/P 8.3, IV, body), 2.53 × 10^7; in the series on mice (setting [8]), 1.72 × 10^6. The IVIS in the series on mice (setting [9]) is on record as 4.34 × 10^7; in the series on mice (setting [10]), 3.63 × 10^6; in the series with mice (DMG-PEG2000:DSPC:Chol:Lipid 1.63:12.99:45.38:40.00, N/P 25, IM, whole body scan) it was 2.20 × 10^6. Also, the “% of organ targeting” value in the series on mice (setting [5]) worked out at 28.98%; with mice (setting [6]), 24.44%; with mice (setting [7]), 46.57%; with mice (setting [8]), 3.53%; in the series on mice (setting [9]), 89.03%; in the series with mice (setting [10]) it was 7.45%. The “tissue-targeting specificity (lung vs spleen depending on molar percentage of compound)” value in the series on mice (certain formulations, Table 2) was “strong tissue-targeting specificity”.
For the molecule `CCCCCCCCCCNC(=O)C(O)CN(CCOCCN(CC(O)C(=O)NCCCCCCCCCC)CC(O)C(=O)NCCCCCCCCCC)CC(O)C(=O)NCCCCCCCCCC` (centres unmarked) [Compound L0326], the PDI in series [1] (setting [11]) was determined as 0.14. Further, in series [1] (setting [11]), the “Particle size (nm)” value came to 103.37 nm. Also, the IVIS in the series with mice (setting [12]) is listed as 6.75E+05; with mice (setting [13]) it was 1.02E+06.
Take `CCCCCCOCOCCCCCCOC(=O)C(O)CN(CCCN(C)CCCN(CC(O)C(=O)OCCCCCCOCOCCCCCC)CC(O)C(=O)OCCCCCCOCOCCCCCC)CC(O)C(=O)OCCCCCCOCOCCCCCC` (centres unmarked) [Compound L0271]: the PDI in series [1] (setting [14]) is 0.06 ± 0.01; in series [1] (setting [15]) it was 0.04 ± 0.03. In addition, the Particle size was 145.73 ± 2.21 nm in series [1] (setting [14]) and 124.63 ± 0.70 nm in series [1] (setting [15]). Moreover, the IVIS with mice (DMG-PEG2000:DSPC:Chol:Lipid 1.09:8.66:30.25:60.00, N/P 13.3, IM, whole body scan) is reported as 3.27 × 10^6; with mice (DMG-PEG2000:DSPC:Chol:Lipid 1.40:11.15:38.95:48.50, N/P 13.3, IV, whole body scan), 4.16 × 10^8.
As to `CCCCCCCCCCCCNC(=O)C(O)CN(CCCCCCCN(CC(O)C(=O)NCCCCCCCCCCCC)CC(O)C(=O)NCCCCCCCCCCCC)CC(O)C(=O)NCCCCCCCCCCCC` (centres unmarked) [Compound L0308], in series [1] (setting [11]), the PDI came to 0.10 and the “Particle size (nm)” value is listed as 132.67 nm. In the series on mice (setting [12]), this molecule yielded an IVIS of 9.07E+05. In addition, the IVIS in the series on mice (setting [13]) was 1.99E+05.
Take `CCCCCCCCCCNC(=O)C(O)CN(C)CCCN(C)CCCN(C)CC(O)C(=O)NCCCCCCCCCC` (centres unmarked) [Compound L0327]: in series [1] (setting [16]), the PDI is recorded as 0.18 and the “Particle size (nm)” value worked out at 108.57 nm. In addition, the IVIS in the series with mice (setting [17]) worked out at 4.85E+05. The IVIS in the series with mice (IV, organ not given, DMG-PEG2000:DSPC:Chol:compound 1.40:11.15:38.95:48.50, N/P 30, Fluc-mRNA) was found to be 2.98E+05.
The molecule `CC/C=C\CCOCOCCCCCCOC(=O)C(O)CN(CCN(C)CCN(CC(O)C(=O)OCCCCCCOCOCC/C=C\CC)CC(O)C(=O)OCCCCCCOCOCC/C=C\CC)CC(O)C(=O)OCCCCCCOCOCC/C=C\CC` (centres unmarked) [Compound L0334] registered a PDI in series [1] (setting [16]) of 0.06. Further, in series [1] (setting [16]), the “Particle size (nm)” value amounted to 146.13 nm. In addition, the IVIS in the series on mice (setting [17]) came out at 6.25E+05; in the series on mice (IV, body, DMG-PEG2000:DSPC:Chol:compound 1.40:11.15:38.95:48.50, N/P 30, Fluc-mRNA), 5.29E+08; in the series on mice (IV, liver, DMG-PEG2000:DSPC:Chol:compound 1.40:11.15:38.95:48.50, N/P 30, Fluc-mRNA), 1.01E+08; with mice (IV, lung, DMG-PEG2000:DSPC:Chol:compound 1.40:11.15:38.95:48.50, N/P 30, Fluc-mRNA) it was 1.22E+07; with mice (IV, spleen, DMG-PEG2000:DSPC:Chol:compound 1.40:11.15:38.95:48.50, N/P 30, Fluc-mRNA) it was 6.35E+07. Moreover, the “% of organ targeting” value with mice (IV, liver, DMG-PEG2000:DSPC:Chol:compound 1.40:11.15:38.95:48.50, N/P 30) came to 57.03%; with mice (IV, lung, DMG-PEG2000:DSPC:Chol:compound 1.40:11.15:38.95:48.50, N/P 30) it was 6.95%; with mice (IV, spleen, DMG-PEG2000:DSPC:Chol:compound 1.40:11.15:38.95:48.50, N/P 30), 36.03%.
As for `CCCCCCCC/C=C\CCCCCCCCNC(=O)C(O)CN(C)CCN(C)CCN(C)CC(O)C(=O)NCCCCCCCC/C=C\CCCCCCCC` (centres unmarked) [Compound L0296], the PDI in series [1] (setting [11]) was determined as 0.16. Besides, the “Particle size (nm)” value in series [1] (setting [11]) is recorded as 81.09 nm. The results for the IVIS in the series with mice (setting [12]) and with mice (setting [13]) were 2.80E+05 and 2.97E+05, respectively.
In the case of `CCCCCCOCOCCCCCCOC(=O)C(O)CN(CCOCCOCCN(CC(O)C(=O)OCCCCCCOCOCCCCCC)CC(O)C(=O)OCCCCCCOCOCCCCCC)CC(O)C(=O)OCCCCCCOCOCCCCCC` (centres unmarked) [Compound L0329], in series [1] (setting [11]), the PDI worked out at 0.18. Besides, in series [1] (setting [11]), the “Particle size (nm)” value was 158.43 nm. Besides, the IVIS is 4.22E+06 in the series on mice (setting [12]); 3.09E+06 with mice (IV, body, DMG-PEG2000:DSPC:Chol:compound 1.40:11.15:38.95:48.50, N/P 20, Fluc-mRNA); 5.34E+05 with mice (IV, liver, DMG-PEG2000:DSPC:Chol:compound 1.40:11.15:38.95:48.50, N/P 20, Fluc-mRNA); 1.11E+05 with mice (IV, lung, DMG-PEG2000:DSPC:Chol:compound 1.40:11.15:38.95:48.50, N/P 20, Fluc-mRNA); 1.44E+06 with mice (IV, spleen, DMG-PEG2000:DSPC:Chol:compound 1.40:11.15:38.95:48.50, N/P 20, Fluc-mRNA). Moreover, the “% of organ targeting” value in the series on mice (IV, liver, DMG-PEG2000:DSPC:Chol:compound 1.40:11.15:38.95:48.50, N/P 20) was found to be 25.67%; in the series on mice (IV, lung, DMG-PEG2000:DSPC:Chol:compound 1.40:11.15:38.95:48.50, N/P 20), 5.35%; in the series on mice (IV, spleen, DMG-PEG2000:DSPC:Chol:compound 1.40:11.15:38.95:48.50, N/P 20), 68.99%.
For `CCCCCCCCCCCCNCC(O)CN(CCCNC(=O)CCN(CCCN(CCC(=O)NCCCN(CC(O)C(=O)NCCCCCCCCCCCC)CC(O)C(=O)NCCCCCCCCCCCC)CCC(=O)NCCCN(CC(O)C(=O)NCCCCCCCCCCCC)CC(O)C(=O)NCCCCCCCCCCCC)CCC(=O)NCCCN(CC(O)C(=O)NCCCCCCCCCCCC)CC(O)C(=O)NCCCCCCCCCCCC)CC(O)C(=O)NCCCCCCCCCCCC` (centres unmarked) [Compound L0328], the PDI in series [1] (setting [18]) stood at 0.11. The “Particle size (nm)” value in series [1] (setting [18]) was 150.47 nm. Moreover, the IVIS is on record as 9.40E+05 with mice (IM, DMG-PEG2000:DSPC:Chol:compound 1.40:11.15:38.95:48.50, N/P 40, Fluc-mRNA); 3.55E+07 in the series on mice (IV, body, DMG-PEG2000:DSPC:Chol:compound 1.40:11.15:38.95:48.50, N/P 40, Fluc-mRNA); 5.62E+06 with mice (IV, liver, DMG-PEG2000:DSPC:Chol:compound 1.40:11.15:38.95:48.50, N/P 40, Fluc-mRNA); 1.69E+05 in the series with mice (IV, lung, DMG-PEG2000:DSPC:Chol:compound 1.40:11.15:38.95:48.50, N/P 40, Fluc-mRNA); 5.04E+06 in the series with mice (IV, spleen, DMG-PEG2000:DSPC:Chol:compound 1.40:11.15:38.95:48.50, N/P 40, Fluc-mRNA). The “% of organ targeting” value came out at 51.92% with mice (IV, liver, DMG-PEG2000:DSPC:Chol:compound 1.40:11.15:38.95:48.50, N/P 40); 1.56% in the series with mice (IV, lung, DMG-PEG2000:DSPC:Chol:compound 1.40:11.15:38.95:48.50, N/P 40); 46.52% in the series on mice (IV, spleen, DMG-PEG2000:DSPC:Chol:compound 1.40:11.15:38.95:48.50, N/P 40).
